From the supplement of paper PMC10307832

Tests used:
Experiment in all cases: relative viability (nuclei count vs DMSO), 5 days (fraction); higher = more cells survive
MLN4924 + Decitabine = compound: NS(=O)(=O)OC[C@@H]1C[C@@H](n2ccc3c(N[C@H]4CCc5ccccc54)ncnc32)C[C@@H]1O [MLN4924] + Nc1ncn([C@H]2C[C@H](O)[C@@H](CO)O2)c(=O)n1 [Decitabine] (partner 2 µM)
In short: (§1)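 Lung cancer cell lines in 1536-well plates were dosed by pin tool the day after seeding, either with one drug alone or with a fixed anchor-drug dose plus five library-drug doses (not always all listed) in √10 steps. After 5 days, cells were fixed and their nuclei stained in one step (final 0.05% Triton X-100, 1% formaldehyde, 1 ug/ml Hoechst), then counted on 4× images. Relative viability is the nuclei count in treated wells divided by that in vehicle wells. Values are medians of duplicate plates.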

Carboplatin + Pictilisib = compound: C1CC(C1)(C(=O)O)C(=O)O.[NH2-].[NH2-].[Pt+2] [Carboplatin] + CS(=O)(=O)N1CCN(Cc2cc3nc(-c4cccc5[nH]ncc45)nc(N4CCOCC4)c3s2)CC1 [Pictilisib] (partner 1 µM)
In short: as §1

MLN4924 + Pictilisib = compound: NS(=O)(=O)OC[C@@H]1C[C@@H](n2ccc3c(N[C@H]4CCc5ccccc54)ncnc32)C[C@@H]1O [MLN4924] + CS(=O)(=O)N1CCN(Cc2cc3nc(-c4cccc5[nH]ncc45)nc(N4CCOCC4)c3s2)CC1 [Pictilisib] (partner 1 µM)
In short: as §1

Carboplatin + Lapatinib = compound: C1CC(C1)(C(=O)O)C(=O)O.[NH2-].[NH2-].[Pt+2] [Carboplatin] + CS(=O)(=O)CCNCc1ccc(-c2ccc3ncnc(Nc4ccc(OCc5cccc(F)c5)c(Cl)c4)c3c2)o1 [Lapatinib] (partner 2 µM)
In short: as §1

| Cell Line | relative viability (MLN4924 + Decitabine; first compound 0.04 µM) | relative viability (MLN4924 + Decitabine; first compound 0.1265 µM) | relative viability (MLN4924 + Decitabine; first compound 0.4 µM) | relative viability (MLN4924 + Decitabine; first compound 1.265 µM) | relative viability (MLN4924 + Decitabine; first compound 4 µM) | relative viability (Carboplatin + Pictilisib; first compound 0.08 µM) | relative viability (Carboplatin + Pictilisib; first compound 0.253 µM) | relative viability (Carboplatin + Pictilisib; first compound 0.8 µM) | relative viability (Carboplatin + Pictilisib; first compound 2.53 µM) | relative viability (Carboplatin + Pictilisib; first compound 8 µM) | relative viability (MLN4924 + Pictilisib; first compound 0.04 µM) | relative viability (MLN4924 + Pictilisib; first compound 0.1265 µM) | relative viability (MLN4924 + Pictilisib; first compound 0.4 µM) | relative viability (MLN4924 + Pictilisib; first compound 1.265 µM) | relative viability (MLN4924 + Pictilisib; first compound 4 µM) | relative viability (Carboplatin + Lapatinib; first compound 0.08 µM) | relative viability (Carboplatin + Lapatinib; first compound 0.253 µM) | relative viability (Carboplatin + Lapatinib; first compound 0.8 µM) | relative viability (Carboplatin + Lapatinib; first compound 2.53 µM) | relative viability (Carboplatin + Lapatinib; first compound 8 µM) |
| --- | --- | --- | --- | --- | --- | --- | --- | --- | --- | --- | --- | --- | --- | --- | --- | --- | --- | --- | --- | --- |
| LCLC-103H | 0.807 | 0.638 | 0.547 | 0.261 | 0.315 | 0.65 | 0.597 | 0.613 | 0.646 | 0.611 | 0.757 | 0.697 | 0.788 | 0.238 | 0.233 |  |  |  |  |  |
| LK-2 | 0.228 | 0.253 | 0.216 | 0.118 | 0.156 | 0.707 | 0.643 | 0.462 | 0.401 | 0.613 | 0.511 | 0.503 | 0.566 | 0.254 | 0.262 | 1.17 | 0.956 | 0.858 | 0.792 | 0.809 |
| LOU-NH91 | 0.793 | 0.797 | 0.684 | 0.557 | 0.523 | 0.551 | 0.57 | 0.5 | 0.525 | 0.576 | 0.53 | 0.574 | 0.515 | 0.393 | 0.434 | 0.84 | 0.755 | 0.838 | 0.819 | 0.735 |
| LU99A | 0.595 | 0.298 | 0.341 | 0.176 | 0.14 | 0.3 | 0.379 | 0.323 | 0.328 | 0.307 | 0.334 | 0.299 | 0.226 | 0.153 | 0.137 | 0.988 | 1.04 | 1.01 | 0.917 | 0.795 |
| NCI-H441 | 0.253 | 0.241 | 0.22 | 0.158 | 0.175 | 0.56 | 0.588 | 0.414 | 0.492 | 0.433 | 0.471 | 0.285 | 0.251 | 0.136 | 0.139 |  |  |  |  |  |
| NCI-H522 | 0.626 | 0.598 | 0.571 | 0.401 | 0.406 |  |  |  |  |  |  |  |  |  |  |  |  |  |  |  |
| NCI-H1299 |  |  |  |  |  | 0.785 | 0.663 | 0.62 | 0.739 | 0.617 | 0.378 | 0.398 | 0.153 | 0.0571 | 0.0769 | 0.993 | 0.922 | 0.944 | 0.907 | 0.892 |
| NCI-H1563 |  |  |  |  |  | 0.733 | 0.664 | 0.639 | 0.629 | 0.657 | 0.802 | 0.646 | 0.581 | 0.535 | 0.586 | 0.998 | 1.07 | 1.11 | 0.925 | 0.979 |
| NCI-H1648 | 0.572 | 0.507 | 0.398 | 0.305 | 0.336 |  |  |  |  |  |  |  |  |  |  |  |  |  |  |  |
| NCI-H1703 |  |  |  |  |  | 0.261 | 0.229 | 0.231 | 0.251 | 0.245 | 0.181 | 0.162 | 0.165 | 0.155 | 0.174 | 1.13 | 0.966 | 1.13 | 0.92 | 1.28 |
| NCI-H2228 |  |  |  |  |  | 0.547 | 0.385 | 0.446 | 0.326 | 0.312 |  | 0.504 | 0.101 | 0.111 | 0.196 | 1.61 | 0.939 | 1.01 | 0.868 | 0.616 |
| NCI-H2342 | 0.695 | 0.75 | 0.718 | 0.643 | 0.468 |  |  |  |  |  |  |  |  |  |  |  |  |  |  |  |
| SW 900 |  | 0.427 | 0.344 | 0.27 | 0.211 |  |  |  |  |  |  |  |  |  |  |  |  |  |  |  |
